“Also recorded” adds a separate entry of the source.
Tests used:
[1] = system: cerebrocortical neurons; experiment: In vitro model of mild NMDA-induced damage leading to apoptosis of cerebrocortical neurons; assay type: cell-based
Experimental: Cerebrocortical cultures were exposed to 300 μM NMDA for 20 min with or without various concentrations of compound 7. The next day cultures were analyzed by neuronal apoptosis as described in Example 19.
Under these conditions (300 μM NMDA exposure for 20 min, followed by washout), neuronal apoptosis was monitored 24 hours later by propidium iodide uptake and morphology of fixed, permeabilized neurons, among other techniques (Bonfoco et al., Proc Natl Acad Sci USA (1995) 92: 7162). NMDA induced about 20% apoptosis of neurons, and that 25-100 μM compound 7 afforded protection from this damage (P<0.001, FIG. 5).

[2] = system: precontracted aortic vessel; experiment: Relaxation of norepinephrine-precontracted, endothelium-denuded thoracic aorta rings; set-up: species or system rabbits; settings: for effect on precontracted blood vessel: compared to solvent (EtOH) alone
Experimental: New Zealand white female rabbits weighing 3-4 kilograms were anesthetized with sodium pentobarbital, 13 milligram per kilogram. Descending thoracic aorta were isolated, the vessels were cleaned of adherent tissue and the endothelium was removed by a gentle rubbing with a cotton-tipped applicator inserted into the lumen. The vessels were cut into 5 millimeter rings and mounted on stirrups connected to transducers by which changes in isometric tension were recorded (model TO3C, Grass Instruments, Quincy, Mass.). Vessel rings were suspended in 20 mL of oxygenated Krebs buffer at 37° C. and sustained contractions were induced with 1 μM norepinephrine. The vessels were then relaxed in a dose-dependent fashion (10^−9 through 10^−5 M compound 8). In some experiments vessels were pretreated with methylene blue or hemoglobin to block relaxations.
Relaxations were attenuated by methylene blue (c) and hemoglobin (d) indicating an NO-related effect. (b) is a control with solvent.

[3] = system: C57B1/6 mice; experiment: Murine cerebral ischemia model (intraluminal suture, 2 hr MCA occlusion, TTC staining); assay type: in vivo; settings: loading dose 100 mg/kg i.p., maintenance 40 mg/kg i.p. every 12 hr, first dose 2 hr after MCA occlusion; TTC staining at 48 hr; P<0.03 from control, P<0.05 from memantine; hydrochloride
Experimental: The intraluminal suture technique was used to produce a 2 hr occlusion of the middle cerebral artery (MCA), following the same protocol for focal cerebral ischemia/reperfusion as published previously (Chen, et al., Neuroscience (1998) 86: 1121). However, here C57B1/6 mice were used instead of rats. […] To produce a neuroprotective concentration of compound 7, the loading dose was 100 mg/kg i.p. and the maintenance dose was 40 mg/kg i.p. every 12 hr. In each case, drug or vehicle control was initially administered 2 hr after MCA occlusion. […] The animals were sacrificed and analyzed with TTC staining 48 hr after MCA occlusion (Chen, et al., Neuroscience (1998) 86: 1121).

[4] = loading dose 20 mg/kg i.p., maintenance dose 1 mg/kg/12 hours; previously shown (Chen et al. 1998); cited from earlier work
[5] = rabbit aortic rings precontracted with 1 μM norepinephrine, 10^−9 through 10^−5 M tested

In the case of CC12CC3(C)CC(N)(C1)CC(O[N+](=O)[O-])(C2)C3.Cl [compound 7, 1-amino-3,5-dimethyl-7-nitrateadamantane hydrochloride], the “concentration affording protection from NMDA-induced neuronal apoptosis” value ([1]; 300 μM NMDA for 20 min, washout, apoptosis monitored 24 hours later by propidium iodide uptake and morphology, NMDA induced about 20% apoptosis, P<0.001) is reported as 25 to 100 µM, the “inhibition of NMDA induced apoptosis in cerebrocortical neurons” value ([1]; 300 μM NMDA for 20 min with various concentrations of compound, dose-dependent, P<0.001, n=3 cultures) is reported as “largely prevented” and the “effect on precontracted blood vessel at 10 microM” value ([2]; FIG. 8, 10 microM concentration) is reported as “modest relaxation”. For the same molecule, the “cerebral damage after stroke (neuroprotection)” value [3] was “more neuroprotective than memantine; also recorded: effective in decreasing cerebral damage after stroke”.

For CC12CC3(C)CC(O)(C1)CC(N(Cc1ccccc1)Cc1ccccc1)(C2)C3 [compound 10, 1,1-dibenzylamino-3,5-dimethyl-7-hydroxy-adamantane], the “effect on precontracted blood vessel” value ([2]; FIG. 8) was “either no effect or slight contractions of blood vessels; also recorded: either no effect or slight blood vessel contractions”.

With CC(=O)NC12CC3(C)CC(C)(C1)CC(O[N+](=O)[O-])(C3)C2 [compound 8, 1-acetamido-3,5-dimethyl-7-nitrateadamantane] the “concentration at which complete relaxation was achieved” value [2, 5] was 10^−6 M, the “concentration at which relaxations were seen” value [2, 5] was 10^−8 M and the “relaxations after pretreatment with hemoglobin” value ([2]; vessels pretreated with hemoglobin) was “attenuated”. For the same molecule, the “relaxations after pretreatment with methylene blue” value ([2]; vessels pretreated with methylene blue) was “attenuated”.

For CC12CC3(C)CC(N)(C1)CC(O)(C2)C3.Cl [compound 9, 1-amino-3,5-dimethyl-7-hydroxyadamantane hydrochloride], the “effect on precontracted blood vessel” value ([2]; FIG. 8, hydrochloride) was “either no effect or slight contractions of blood vessels; also recorded: either no effect or slight blood vessel contractions”.

In the case of CC12CC3CC(C)(C1)CC(N)(C3)C2 [memantine], the “parenchymal levels in the brain” value [4] is listed as 1 to 10 µM.

Reference: patent US7326730B2, “Aminoadamantane derivatives as therapeutic agents” (Adamas Pharmaceuticals, Inc., priority 2000, dated 2008)
